Counter-ions that a name gives are not always drawn. Calls of active or inactive are those of the source. Rule as the data show it, for most assays here: actives have a measured EC50 and inactives only a lower limit.
Experiments:
Cytochrome P450 3A4 = Cytochrome P450 3A4 (Homo sapiens, UniProt P08684);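 also: CYP3A4 tested as one member of a cytochrome P450 panel screen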
Cytochrome P450 1A2 = target: T1, Cytochrome P450 1A2 (Homo sapiens, UniProt P05177);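 also: PubChem cytochrome P450 panel assay, CYP1A2 panel member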
T1 sequence (P05177 whole entry): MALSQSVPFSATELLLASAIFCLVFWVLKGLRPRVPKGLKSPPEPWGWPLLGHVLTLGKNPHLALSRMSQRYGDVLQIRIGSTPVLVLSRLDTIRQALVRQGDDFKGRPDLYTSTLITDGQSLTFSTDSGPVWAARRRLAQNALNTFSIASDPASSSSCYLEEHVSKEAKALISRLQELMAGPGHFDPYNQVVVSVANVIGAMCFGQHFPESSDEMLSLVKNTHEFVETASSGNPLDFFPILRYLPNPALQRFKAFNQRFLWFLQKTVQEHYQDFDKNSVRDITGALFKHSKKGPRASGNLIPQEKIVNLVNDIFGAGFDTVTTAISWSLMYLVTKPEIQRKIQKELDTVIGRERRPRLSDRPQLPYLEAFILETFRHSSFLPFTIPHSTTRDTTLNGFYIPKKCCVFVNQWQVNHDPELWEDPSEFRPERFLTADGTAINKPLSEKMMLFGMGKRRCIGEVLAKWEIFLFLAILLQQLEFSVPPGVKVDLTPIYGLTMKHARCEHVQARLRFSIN

H4 = test: Luminescence Cell-Based Dose Response HTS to Identify Activators of 5'UTR Stem-Loop Driven Prion Protein mRNA Translation in H4 Neuroglioblastoma Cells. [Related pubchem assays: 1829 (Project Summary), 1814 (Primary HTS)]; format: functional; conditions: Homo sapiens
[1] = Luminescence Cell-Based Dose Confirmation HTS to Identify Activators of 5'UTR Stem-Loop Driven Alpha-Synuclein mRNA Translation in H4 Neuroglioblastoma Cells. [Related pubchem assays: 1829 (Project Summary), 1814 (Primary HTS)]; format: functional
[2] = Luminescence Cell-Based Dose Response HTS to Identify Activators of Luciferase Translation or Activity in H4 […] Cells. [Related pubchem assays: 1829 (Project Summary), 1814 (Primary HTS)]; format: functional
[3] = target: T2, Corticotropin-releasing factor receptor 2/Corticotropin-releasing factor-binding protein (Homo sapiens, UniProt P24387+Q13324); test: activators of CRF receptor 2 with binding protein – uHTS hits, confirmation (AID 602473); format: functional; conditions: read-out: EC50_Mean
T2 sequence (Q13324 whole entry): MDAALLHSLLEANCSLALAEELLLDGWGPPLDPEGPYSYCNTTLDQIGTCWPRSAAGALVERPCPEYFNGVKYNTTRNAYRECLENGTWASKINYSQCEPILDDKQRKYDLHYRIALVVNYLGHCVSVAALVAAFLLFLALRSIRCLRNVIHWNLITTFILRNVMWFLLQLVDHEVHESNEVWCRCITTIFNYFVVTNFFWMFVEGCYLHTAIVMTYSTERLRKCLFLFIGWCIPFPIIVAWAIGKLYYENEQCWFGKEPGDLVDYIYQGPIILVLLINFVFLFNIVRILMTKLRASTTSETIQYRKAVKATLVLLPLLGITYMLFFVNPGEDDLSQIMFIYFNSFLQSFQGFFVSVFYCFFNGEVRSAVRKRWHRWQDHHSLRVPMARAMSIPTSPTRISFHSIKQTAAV
T2 sequence (P24387 whole entry): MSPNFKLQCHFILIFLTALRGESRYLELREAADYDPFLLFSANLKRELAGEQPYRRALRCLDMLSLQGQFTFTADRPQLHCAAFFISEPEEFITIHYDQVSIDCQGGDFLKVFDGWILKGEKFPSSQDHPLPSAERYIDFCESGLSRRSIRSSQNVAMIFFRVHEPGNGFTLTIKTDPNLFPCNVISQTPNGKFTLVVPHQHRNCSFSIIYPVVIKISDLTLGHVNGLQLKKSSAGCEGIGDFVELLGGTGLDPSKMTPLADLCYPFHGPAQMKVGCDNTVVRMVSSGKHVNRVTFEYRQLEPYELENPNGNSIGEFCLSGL

[4] = cytotoxicity toward NIH3T3 fibroblasts, dose response, counter-screen, cell-based, ATP luminescence, mouse fibroblasts (AID 2010); format: functional;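 also: cells exposed to compound for about 90 hours before reading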
[5] = inhibitors of intracellular T. cruzi replication, confirmation, NIH3T3 host cells, beta-gal luminescence (AID 2044); format: functional, cell-based;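 also: intracellular parasites grown in NIH/3T3 mouse fibroblasts as host cells; luminescent beta-galactosidase reporter signal from transgenic T. cruzi replicating inside host cells; inhibitors lower the luminescence signal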

Sequence of Cytochrome P450 3A4 (P08684 whole entry): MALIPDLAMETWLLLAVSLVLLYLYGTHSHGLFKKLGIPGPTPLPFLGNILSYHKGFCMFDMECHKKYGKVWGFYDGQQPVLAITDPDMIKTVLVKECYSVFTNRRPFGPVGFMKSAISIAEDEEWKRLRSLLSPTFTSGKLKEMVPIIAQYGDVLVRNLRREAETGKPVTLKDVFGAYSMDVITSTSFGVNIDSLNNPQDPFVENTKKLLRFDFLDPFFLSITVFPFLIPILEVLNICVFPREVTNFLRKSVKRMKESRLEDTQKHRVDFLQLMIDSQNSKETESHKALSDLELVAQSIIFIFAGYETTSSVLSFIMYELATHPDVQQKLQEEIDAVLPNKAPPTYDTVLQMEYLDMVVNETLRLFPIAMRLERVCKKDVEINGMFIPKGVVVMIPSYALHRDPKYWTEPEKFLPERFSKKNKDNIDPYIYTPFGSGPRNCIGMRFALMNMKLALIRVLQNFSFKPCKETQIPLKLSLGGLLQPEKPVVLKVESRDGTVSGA

## O=C(Nn1cc(C(=O)N2CCN(c3ccccc3F)CC2)c2ccccc2c1=O)c1cnccn1
Cytochrome P450 3A4
  AC50: 28.2 µM (inconclusive)
Cytochrome P450 1A2
  AC50: 12.6 µM (inconclusive)

## O=[N+]([O-])c1cc(-c2n(-c3ccccn3)c3ccccc3[n+]2-c2ccccn2)ccc1Cl
H4
  EC50: > 120 µM (not active)
[1]
  EC50: 56.9 µM (active)
[2]
  EC50: 14.2 µM (active)

## O=[N+]([O-])c1cccc(-c2cn(-c3ccccc3)c(S)n2)c1
H4
  EC50: > 120 µM (not active)
[1]
  EC50: 5.64 µM (active)
[2]
  EC50: > 120 µM (not active)

## CCOC(=O)c1sc(NC(=O)c2cc(-c3ccccc3)nc3ccccc23)c(C#N)c1C
[3]
  EC50: 0.544 µM (active)

## Cc1nc(-c2ccncc2)nc(NCCNc2ncccc2C(F)(F)F)c1Cl
[4]
  EC50: > 60 µM (not active)
[5]
  EC50: 0.364 µM (active)

## Cc1ccc2nc(NC(=O)C3CCCN(S(=O)(=O)c4c[nH]cn4)C3)sc2c1 (stereo not given)
H4
  EC50: 20.8 µM (active)
[1]
  EC50: 30.4 µM (active)
[2]
  EC50: 23.4 µM (active)

## Cc1ccc(NC(=O)CCSc2nnc3ccccn23)cc1
Cytochrome P450 3A4
  AC50: 0.891 µM (inconclusive)

## O=C(C[n+]1c2n(c3ccc(C(F)(F)F)cc31)CCCCC2)c1ccc2c(c1)OCCO2
[4]
  EC50: > 60 µM (not active)
[5]
  EC50: 1.3 µM (active)

## CC(=O)Nc1cccc(OC(=O)c2ccoc2C)c1
[3]
  EC50: 4.9 µM (active)

## CN(C(=O)c1ccc(S(=O)(=O)NC2CCCC2)cc1)C1CCCCC1
[3]
  EC50: > 53 µM (inactive)

## O=C(Nc1ccc(SC(F)F)cc1)c1ccc2c(=O)n3c(nc2c1)CCC3
[3]
  EC50: 1.4 µM (active)

## C=CCN1C(=O)NC(=O)/C(=C/c2cccn2C)C1=O
Cytochrome P450 1A2
  AC50: 15.8 µM (inconclusive)

## O=C(CSc1nnc(-c2ccc(F)cc2)c2ccccc12)Nc1cccc(Cl)c1
[4]
  EC50: > 30 µM (not active)
[5]
  EC50: 2.16 µM (active)

## CN1CCN(CCCc2c3c(cc4c2CCC4)CCC3)CC1
[4]
  EC50: > 60 µM (not active)
[5]
  EC50: 0.601 µM (active)

## CCOC(=O)c1sc2ncnc(N3CCN(CC)CC3)c2c1C
[4]
  EC50: > 60 µM (inconclusive)
[5]
  EC50: 0.577 µM (active)

## c1cncc(-c2nc(NCc3ccc4c(c3)OCO4)c3ccccc3n2)c1
[4]
  EC50: > 30 µM (not active)
[5]
  EC50: 0.921 µM (active)

## CCOC(=O)N1CC=C2C(C#N)=C(N)C(C#N)(C#N)[C@H](c3ccccc3OCC)[C@H]2C1
H4
  EC50: > 120 µM (not active)
[1]
  EC50: > 120 µM (not active)
[2]
  EC50: > 120 µM (not active)

## CN(C)c1ncc2nc(-c3ccc(F)cc3)c(=O)n(Cc3cccs3)c2n1
Cytochrome P450 3A4
  AC50: 25.1 µM (inconclusive)

## Cc1ccc(S(=O)(=O)Nc2cccc(C(=O)NC3CCN(Cc4ccccc4)CC3)c2)cc1F
[4]
  EC50: > 60 µM (not active)
[5]
  EC50: 1.12 µM (active)

## NC(=O)c1c(NC(=O)CCCn2cnc([N+](=O)[O-])n2)sc2c1CCCC2
[4]
  EC50: > 60 µM (not active)
[5]
  EC50: 0.125 µM (active)

## CCc1ccc(N2CC(C(=O)NC3=NCCS3)CC2=O)cc1 (stereo not given)
Cytochrome P450 1A2
  AC50: 20 µM (inconclusive)

## Cc1ccc2c(c1)/C(=N/C1CCCCC1)c1cc3ccccc3nc1-2
H4
  EC50: 0.408 µM (active)
[1]
  EC50: 14.9 µM (active)
[2]
  EC50: 37.2 µM (active)

## N=C(N)NC(=O)c1nc(Cl)c(N)nc1N [AMILORIDE HYDROCHLORIDE]
Cytochrome P450 1A2
  AC50: 6.31 µM (inconclusive)

## CNCCC=C1c2ccccc2CCc2ccccc21 [NORTRIPTYLINE]
Cytochrome P450 1A2
  AC50: 25.1 µM (inconclusive)

## CS(=O)(=O)Nc1ccc([N+](=O)[O-])cc1OC1CCCCC1 [NS-398]
Cytochrome P450 3A4
  AC50: 20 µM (inconclusive)

## C[C@@H](C(=O)O)c1ccc(-c2ccccc2)c(F)c1 [TARENFLURBIL]
Cytochrome P450 1A2
  AC50: 31.6 µM (inconclusive)

From ChEMBL document CHEMBL1201862, “PubChem BioAssay data set” (2004)
